The target of test [1] is T1, Lysosomal acid glucosylceramidase (Homo sapiens) (UniProt P04062).
T1 sequence (whole entry): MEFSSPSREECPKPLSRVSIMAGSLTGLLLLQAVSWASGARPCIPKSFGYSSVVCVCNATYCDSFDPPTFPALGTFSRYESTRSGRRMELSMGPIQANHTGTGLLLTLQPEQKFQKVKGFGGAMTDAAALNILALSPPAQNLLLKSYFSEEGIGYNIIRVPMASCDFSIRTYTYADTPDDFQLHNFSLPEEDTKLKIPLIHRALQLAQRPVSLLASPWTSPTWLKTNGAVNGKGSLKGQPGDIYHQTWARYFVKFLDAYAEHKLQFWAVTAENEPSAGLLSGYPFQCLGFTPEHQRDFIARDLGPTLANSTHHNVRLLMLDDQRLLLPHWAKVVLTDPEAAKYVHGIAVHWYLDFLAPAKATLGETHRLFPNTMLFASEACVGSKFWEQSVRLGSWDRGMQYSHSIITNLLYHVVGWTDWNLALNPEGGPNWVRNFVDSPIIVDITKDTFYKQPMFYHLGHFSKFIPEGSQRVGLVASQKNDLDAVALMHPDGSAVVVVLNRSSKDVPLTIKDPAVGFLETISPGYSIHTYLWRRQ
The test can be described thus: Inhibition of human recombinant beta-glucocerebrosidase assessed as p-nitrophenolate accumulation at 1000 uM preincubated for 10 mins before p-nitrophenyl-beta-d-glucopyranoside addition measured after 10 mins by […].

The target in test [2] is T2, Lysosomal acid glucosylceramidase (Homo sapiens, UniProt P04062).
T2 sequence (P04062 whole entry): T1 sequence (whole entry)
Nature of the test: Inhibition of human recombinant beta-glucocerebrosidase assessed as p-nitrophenolate accumulation preincubated for 10 mins before p-nitrophenyl-beta-d-glucopyranoside addition measured after 10 mins by […].

Test [3] addresses T1, Lysosomal acid glucosylceramidase (Homo sapiens). The test can be described thus: Inhibition of misfolded beta-glucocerebrosidase in human gaucher cells assessed as increase in enzyme activity at 10 nM. In kind it is cell-based.

Molecules are shown by their SMILES. pIC50, pKi: −log10 of the molar value.

As usually defined, the inhibition is the drop in the measured response relative to a control, in per cent. In the case of `OCC(O)C[C@H]1N[C@@H](CO)[C@@H](O)[C@H](O)[C@H]1O` (stereo partly drawn), the inhibition in test [1] is less than 50%.

One may read the pIC50 as −log10 of the IC50, conventionally taken in molar units. With `CCC[C@H]1NC[C@@H](O)[C@H](O)[C@H]1O`, in test [2], the pIC50 was 6.25.

As to `CCCC1N[C@@H](CO)[C@@H](O)[C@H](O)[C@H]1O` (single isomer, unassigned), the pIC50 in test [2] is 3.31.

Regarding `CCCCC1N[C@@H](CO)[C@@H](O)[C@H](O)[C@H]1O` (single isomer, unassigned), the negative-log IC50 (pIC50) in test [2] was 3.83.

Turning to `CCCCCC[C@H]1NC[C@@H](O)[C@H](O)[C@H]1O`, in test [2], the pIC50 was 7.72.

In general, pKi refers to the negative decadic logarithm of the Ki, by convention in mol/L. As for `CCCCCCCCC[C@H]1NC[C@@H](O)[C@H](O)[C@H]1O`, in test [2], the pKi was 8.66. For the same compound, the fold change (FC) in test [3] came to 2.

As to `CCCCCC[C@H]1N[C@@H](CO)[C@@H](O)[C@H](O)[C@H]1O`, in test [2], the pIC50 is 4.37.

Values taken from ChEMBL document CHEMBL1156977, “Synthesis of new beta-1-C-alkylated imino-L-iditols: A comparative study of their activity as beta-glucocerebrosidase inhibitors” (Bioorg Med Chem, 2010).
